# Test results from publication PMC6576746, “Rational discovery of dual-indication multi-target PDE/Kinase inhibitor for precision anti-cancer therapy using structural systems pharmacology” (PLoS Computational Biology, 2019).
# Experiments:
# Assay in all cases: biochemical
# Parameters in all cases: DiscoverX KinomeScan competition binding assay across human kinases; per cent of control at 10 and 100 uM
# RIPK1 = RIPK1 (Homo sapiens, UniProt Q13546); conditions: competition binding, % of control; read-out: Percent Control (100 uM Levosimendan)
# Method in brief: (§1)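 Binding is expressed as %control, normalised between positive and negative control signals. The compound (levosimendan) was tested at 10 μM and 100 μM in the DiscoverX KinomeScan competition binding format against human kinases.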
# PIK3C2B = PIK3C2B (Homo sapiens, UniProt O00750); conditions: competition binding, % of control; read-out: Percent Control (100 uM Levosimendan)
# Method in brief: as §1
# TEC = TEC (Homo sapiens, UniProt P42680); conditions: competition binding, % of control; read-out: Percent Control (100 uM Levosimendan)
# Method in brief: as §1
# PRKCI = PRKCI (Homo sapiens, UniProt P41743); conditions: competition binding, % of control; read-out: Percent Control (100 uM Levosimendan)
# Method in brief: as §1
# EPHA7 = EPHA7 (Homo sapiens, UniProt Q15375); conditions: competition binding, % of control; read-out: Percent Control (100 uM Levosimendan)
# Method in brief: as §1
# YSK4 = target: T1, YSK4 (Homo sapiens, UniProt Q56UN5); conditions: competition binding, % of control
# T1 construct: gene MAP3K19
# Method in brief: as §1
# PAK7 = target: T2, PAK7 (Homo sapiens, UniProt Q9P286); conditions: competition binding, % of control; read-out: Percent Control (100 uM Levosimendan)
# T2 construct: gene PAK5
# Method in brief: as §1
# ACVR2B = ACVR2B (Homo sapiens, UniProt Q13705); conditions: competition binding, % of control; read-out: Percent Control (100 uM Levosimendan)
# Method in brief: as §1
# ERK1 = target: T3, ERK1 (Homo sapiens, UniProt P27361); conditions: competition binding, % of control; read-out: Percent Control (100 uM Levosimendan)
# T3 construct: gene MAPK3
# Method in brief: as §1
# NEK1 = NEK1 (Homo sapiens, UniProt Q96PY6); conditions: competition binding, % of control; read-out: Percent Control (100 uM Levosimendan)
# Method in brief: as §1
# NEK6 = NEK6 (Homo sapiens, UniProt Q9HC98); conditions: competition binding, % of control; read-out: Percent Control (100 uM Levosimendan)
# Method in brief: as §1
# SgK110 = target: T4, SgK110 (Homo sapiens, UniProt P0C264); conditions: competition binding, % of control; read-out: Percent Control (100 uM Levosimendan)
# T4 construct: gene SBK3
# Method in brief: as §1
# [1] = target: T5, ABL1(Q252H)-phosphorylated (Homo sapiens, UniProt P00519, Q252H); conditions: competition binding, % of control; read-out: Percent Control (100 uM Levosimendan)
# T5 construct: phosphorylated
# Method in brief: as §1
# BRAF(V600E) = BRAF(V600E) (Homo sapiens, UniProt P15056, V600E); conditions: competition binding, % of control; read-out: Percent Control (100 uM Levosimendan)
# Method in brief: as §1
# AKT1 = AKT1 (Homo sapiens, UniProt P31749); conditions: competition binding, % of control; read-out: Percent Control (100 uM Levosimendan)
# Method in brief: as §1
# AURKC = AURKC (Homo sapiens, UniProt Q9UQB9); conditions: competition binding, % of control; read-out: Percent Control (100 uM Levosimendan)
# Method in brief: as §1
# BMPR1B = BMPR1B (Homo sapiens, UniProt O00238); conditions: competition binding, % of control
# Method in brief: as §1
# PIK3CA(M1043I) = PIK3CA(M1043I) (Homo sapiens, UniProt P42336, M1043I); conditions: competition binding, % of control; read-out: Percent Control (100 uM Levosimendan)
# Method in brief: as §1
# EPHA5 = EPHA5 (Homo sapiens, UniProt P54756); conditions: competition binding, % of control; read-out: Percent Control (100 uM Levosimendan)
# Method in brief: as §1
# [2] = read-out: Percent Control (10 uM Levosimendan)
# [3] = read-out: Percent Control (100 uM Levosimendan)
# Sequence of BMPR1B (O00238 whole entry): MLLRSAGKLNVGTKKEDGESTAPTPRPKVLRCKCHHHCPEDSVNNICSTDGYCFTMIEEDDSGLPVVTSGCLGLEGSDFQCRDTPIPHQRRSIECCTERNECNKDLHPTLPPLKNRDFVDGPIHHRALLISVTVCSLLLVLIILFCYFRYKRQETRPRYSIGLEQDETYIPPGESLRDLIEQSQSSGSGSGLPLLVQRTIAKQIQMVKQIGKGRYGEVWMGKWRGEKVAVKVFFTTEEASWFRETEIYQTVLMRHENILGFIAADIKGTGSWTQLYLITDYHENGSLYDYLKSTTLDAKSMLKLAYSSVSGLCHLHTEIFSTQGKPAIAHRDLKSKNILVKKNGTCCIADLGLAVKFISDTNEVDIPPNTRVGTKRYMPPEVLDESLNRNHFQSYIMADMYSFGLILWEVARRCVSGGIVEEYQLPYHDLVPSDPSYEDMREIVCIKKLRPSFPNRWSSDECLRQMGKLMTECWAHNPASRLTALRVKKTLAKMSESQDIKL
# T1 sequence (Q56UN5 whole entry): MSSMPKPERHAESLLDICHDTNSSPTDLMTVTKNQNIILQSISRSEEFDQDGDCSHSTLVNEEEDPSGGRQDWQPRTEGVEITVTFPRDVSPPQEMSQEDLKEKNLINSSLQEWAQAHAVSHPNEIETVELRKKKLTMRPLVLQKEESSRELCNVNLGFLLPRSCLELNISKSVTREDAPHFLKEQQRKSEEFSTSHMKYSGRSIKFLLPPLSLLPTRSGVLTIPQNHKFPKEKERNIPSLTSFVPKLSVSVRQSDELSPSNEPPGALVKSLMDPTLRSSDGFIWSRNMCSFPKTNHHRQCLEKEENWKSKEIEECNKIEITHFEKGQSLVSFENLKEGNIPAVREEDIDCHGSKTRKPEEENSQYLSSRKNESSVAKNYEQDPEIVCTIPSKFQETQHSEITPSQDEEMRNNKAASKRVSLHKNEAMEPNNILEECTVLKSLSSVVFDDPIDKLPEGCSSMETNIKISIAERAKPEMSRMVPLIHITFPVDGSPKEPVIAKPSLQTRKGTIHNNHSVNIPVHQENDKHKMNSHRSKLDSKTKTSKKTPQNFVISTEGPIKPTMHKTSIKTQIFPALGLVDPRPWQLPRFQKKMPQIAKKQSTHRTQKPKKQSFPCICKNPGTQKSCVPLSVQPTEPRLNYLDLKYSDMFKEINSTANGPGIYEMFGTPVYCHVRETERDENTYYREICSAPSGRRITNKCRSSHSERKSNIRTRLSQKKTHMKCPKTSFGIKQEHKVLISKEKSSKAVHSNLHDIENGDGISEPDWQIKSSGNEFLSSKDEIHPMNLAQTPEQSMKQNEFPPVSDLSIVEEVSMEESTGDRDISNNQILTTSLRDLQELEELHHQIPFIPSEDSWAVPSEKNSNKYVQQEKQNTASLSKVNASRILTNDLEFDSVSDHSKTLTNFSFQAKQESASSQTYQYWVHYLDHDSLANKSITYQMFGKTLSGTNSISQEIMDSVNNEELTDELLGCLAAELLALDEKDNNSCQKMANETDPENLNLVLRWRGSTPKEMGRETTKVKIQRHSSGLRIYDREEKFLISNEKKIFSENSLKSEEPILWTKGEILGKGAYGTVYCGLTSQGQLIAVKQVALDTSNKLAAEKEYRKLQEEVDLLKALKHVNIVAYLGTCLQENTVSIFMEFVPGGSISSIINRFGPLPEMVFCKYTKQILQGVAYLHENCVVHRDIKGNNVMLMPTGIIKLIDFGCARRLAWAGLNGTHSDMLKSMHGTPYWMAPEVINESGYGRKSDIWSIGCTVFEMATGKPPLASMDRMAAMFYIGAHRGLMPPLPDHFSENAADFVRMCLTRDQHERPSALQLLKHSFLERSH
# Sequence of EPHA7 (Q15375 whole entry): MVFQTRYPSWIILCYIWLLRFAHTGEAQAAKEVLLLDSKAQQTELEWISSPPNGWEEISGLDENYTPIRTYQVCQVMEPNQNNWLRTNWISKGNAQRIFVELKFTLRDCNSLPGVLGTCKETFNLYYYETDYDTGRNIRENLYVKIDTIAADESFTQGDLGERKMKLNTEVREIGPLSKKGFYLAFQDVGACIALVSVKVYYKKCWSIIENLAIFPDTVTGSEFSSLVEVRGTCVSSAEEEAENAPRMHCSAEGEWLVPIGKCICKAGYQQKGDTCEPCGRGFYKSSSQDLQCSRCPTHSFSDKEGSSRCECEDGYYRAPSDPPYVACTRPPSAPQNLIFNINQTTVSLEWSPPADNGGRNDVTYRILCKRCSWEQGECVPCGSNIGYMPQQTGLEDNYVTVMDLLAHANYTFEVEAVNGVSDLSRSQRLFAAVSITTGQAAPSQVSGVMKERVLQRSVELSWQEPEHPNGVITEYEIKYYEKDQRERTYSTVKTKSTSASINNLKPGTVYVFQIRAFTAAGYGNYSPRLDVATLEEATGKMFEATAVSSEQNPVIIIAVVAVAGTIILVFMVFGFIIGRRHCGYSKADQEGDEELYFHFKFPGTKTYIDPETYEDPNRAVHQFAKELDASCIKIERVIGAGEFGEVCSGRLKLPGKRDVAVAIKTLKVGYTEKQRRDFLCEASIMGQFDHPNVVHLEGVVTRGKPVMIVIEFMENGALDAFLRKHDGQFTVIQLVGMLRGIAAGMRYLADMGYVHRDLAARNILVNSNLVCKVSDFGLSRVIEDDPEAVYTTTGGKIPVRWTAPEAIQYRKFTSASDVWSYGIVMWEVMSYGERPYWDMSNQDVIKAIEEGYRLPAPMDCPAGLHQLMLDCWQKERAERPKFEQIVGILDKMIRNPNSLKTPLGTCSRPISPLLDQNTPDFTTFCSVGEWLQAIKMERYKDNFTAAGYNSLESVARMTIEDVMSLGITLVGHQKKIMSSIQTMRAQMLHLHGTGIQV
# T2 sequence (Q9P286 whole entry): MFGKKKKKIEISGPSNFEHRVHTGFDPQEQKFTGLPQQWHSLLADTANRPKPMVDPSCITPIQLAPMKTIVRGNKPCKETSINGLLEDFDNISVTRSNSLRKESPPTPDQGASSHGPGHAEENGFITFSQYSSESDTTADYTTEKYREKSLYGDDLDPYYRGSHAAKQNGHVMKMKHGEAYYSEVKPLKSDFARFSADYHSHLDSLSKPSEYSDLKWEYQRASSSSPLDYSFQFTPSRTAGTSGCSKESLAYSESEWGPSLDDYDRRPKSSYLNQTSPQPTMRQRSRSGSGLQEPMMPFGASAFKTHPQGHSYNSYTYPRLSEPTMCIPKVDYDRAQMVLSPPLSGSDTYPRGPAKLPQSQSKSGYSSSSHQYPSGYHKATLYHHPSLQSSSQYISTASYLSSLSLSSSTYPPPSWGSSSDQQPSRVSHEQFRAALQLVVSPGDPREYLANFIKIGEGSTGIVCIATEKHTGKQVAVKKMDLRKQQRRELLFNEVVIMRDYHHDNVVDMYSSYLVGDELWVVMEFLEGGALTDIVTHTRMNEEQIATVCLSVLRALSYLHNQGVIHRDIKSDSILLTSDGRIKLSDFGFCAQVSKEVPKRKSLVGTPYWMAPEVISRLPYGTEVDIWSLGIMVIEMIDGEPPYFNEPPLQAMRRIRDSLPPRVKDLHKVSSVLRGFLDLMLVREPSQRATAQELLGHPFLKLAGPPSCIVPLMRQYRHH
# Sequence of ACVR2B (Q13705 whole entry): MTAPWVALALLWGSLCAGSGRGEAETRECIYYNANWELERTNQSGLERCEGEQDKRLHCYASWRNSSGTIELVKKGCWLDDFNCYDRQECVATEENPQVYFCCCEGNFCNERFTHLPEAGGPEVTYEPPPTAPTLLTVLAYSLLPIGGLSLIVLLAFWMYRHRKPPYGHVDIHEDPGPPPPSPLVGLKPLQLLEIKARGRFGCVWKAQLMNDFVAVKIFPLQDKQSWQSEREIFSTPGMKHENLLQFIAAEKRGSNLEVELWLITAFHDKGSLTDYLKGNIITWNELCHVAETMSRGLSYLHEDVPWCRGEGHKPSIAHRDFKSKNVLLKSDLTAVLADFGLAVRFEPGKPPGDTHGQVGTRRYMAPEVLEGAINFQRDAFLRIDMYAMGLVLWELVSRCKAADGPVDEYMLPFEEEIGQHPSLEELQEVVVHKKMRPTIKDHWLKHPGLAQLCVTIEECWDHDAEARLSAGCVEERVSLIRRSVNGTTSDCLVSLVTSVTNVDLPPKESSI
# Sequence of BRAF(V600E) (P15056 whole entry V600E): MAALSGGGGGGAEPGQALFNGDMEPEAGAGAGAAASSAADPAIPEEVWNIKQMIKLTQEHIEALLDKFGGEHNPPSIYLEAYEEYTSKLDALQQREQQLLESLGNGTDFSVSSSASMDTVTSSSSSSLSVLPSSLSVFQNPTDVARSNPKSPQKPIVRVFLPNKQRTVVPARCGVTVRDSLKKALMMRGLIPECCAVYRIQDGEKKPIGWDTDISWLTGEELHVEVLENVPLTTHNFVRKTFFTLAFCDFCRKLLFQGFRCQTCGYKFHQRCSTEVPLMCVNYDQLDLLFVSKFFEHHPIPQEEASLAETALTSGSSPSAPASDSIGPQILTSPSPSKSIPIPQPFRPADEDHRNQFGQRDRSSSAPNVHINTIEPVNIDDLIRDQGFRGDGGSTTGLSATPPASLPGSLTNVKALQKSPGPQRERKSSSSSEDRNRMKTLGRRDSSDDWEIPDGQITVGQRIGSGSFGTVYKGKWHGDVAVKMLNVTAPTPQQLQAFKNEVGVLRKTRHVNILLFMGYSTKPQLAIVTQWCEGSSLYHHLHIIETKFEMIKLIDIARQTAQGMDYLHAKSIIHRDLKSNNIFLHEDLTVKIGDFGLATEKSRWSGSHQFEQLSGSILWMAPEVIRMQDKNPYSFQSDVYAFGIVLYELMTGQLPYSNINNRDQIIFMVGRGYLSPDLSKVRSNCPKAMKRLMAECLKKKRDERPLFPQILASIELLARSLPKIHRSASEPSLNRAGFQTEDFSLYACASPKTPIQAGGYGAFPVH
structure (smiles),measurement,setting,value
C[C@@H]1CC(=O)NN=C1c1ccc(NN=C(C#N)C#N)cc1 [levosimendan],remaining binding at 100 µM,RIPK1,73%
same,remaining binding at 100 µM,PIK3C2B,90%
same,remaining binding at 100 µM,TEC,74%
same,remaining binding at 100 µM,PRKCI,58%
same,remaining binding at 100 µM,EPHA7,85%
same,remaining binding at 10 µM,YSK4; [2],48%
same,remaining binding at 100 µM,YSK4; [3],10%
same,remaining binding at 100 µM,PAK7,79%
same,remaining binding at 100 µM,ACVR2B,100%
same,remaining binding at 100 µM,ERK1,87%
same,remaining binding at 100 µM,NEK1,100%
same,remaining binding at 100 µM,NEK6,71%
same,remaining binding at 100 µM,SgK110,100%
same,remaining binding at 100 µM,[1],68%
same,remaining binding at 100 µM,BRAF(V600E),78%
same,remaining binding at 100 µM,AKT1,56%
same,remaining binding at 100 µM,AURKC,100%
same,remaining binding at 10 µM,BMPR1B; [2],82%
same,remaining binding at 100 µM,BMPR1B; [3],36%
same,remaining binding at 100 µM,PIK3CA(M1043I),100%
same,remaining binding at 100 µM,EPHA5,100%
